Consider 16 molecules from patent US8338594B2, “Pyrrolotriazine derivatives useful for treating cancer through inhibition of aurora kinase” (Bayer HealthCare LLC, priority 2005, dated 2012).

The target in one assay is T1, Aurora Kinase 1 (Homo sapiens, UniProt Q96GD4).
T1 construct: endogenous in cells; host or cells: HT29 colon carcinoma cells
Nature of the assay: capture ELISA measuring Aurora Kinase 1 autophosphorylation in HT29 colon carcinoma cells. The assay is classed as cell-based. Conditions: HT29 cells synchronized for 24 hours, compound treatment 2 hours. How it is done: To determine the ability of compounds to inhibit Aurora Kinase 1 activity in cells, a capture ELISA measuring Aurora Kinase 1 autophosphorylation was developed in HT29 colon carcinoma cells (Yasui Y, et al 2004). Briefly, 15,000 cells/well were seeded in a 96-well collagen coated plates in RPMI+10% FBS and incubated at 37° C. in 5% CO2 overnight. The following day, the cells were treated with 166 nM nacadazole compounds for 24 hours at 37° C. Synchronized cells were further treated with compounds for 2 hours. Compound dilutions were prepared from 0.1 mM DMSO stocks such that 1.1 μL of each dilution was added to obtain a final concentration ranging from 10 μM to 13 nM in one-third log steps. Following compound treatment, plates were centrifuged at 1000 rpm for 2 minutes and washed twice with 100 μL of cold sterile TBS. Cells were then lysed (100 μL of 150 mM NaCl, 20 mM Tris, pH 7.5, 1 mM EDTA, 1 mM EGTA, 1% Triton-x-100 plus protease and phosphatase inhibitors) by shaking at 4° C. for 1 hour. Cell lysates were transferred to plates pre-coated with anti-phospho mAur1 (Rockland, 600-401-677) and blocked with 5% blocker A in TBS from Meso Scale Discovery. After incubating for 1 hour at RT, plates were washed with 300 μL of TBST for a total of three times. The supernatant was removed and replaced with 50 μL of diluted primary antibody (anti-Aurora Kinase 1, Pharmingen, 611083) at 1:1000 in 2% blocker A in TBS and incubated at room temperature for 1 hour. The antibody buffer was removed from each well and washed three times with 300 μL of cold TBS-T ([…] Tris pH 8.0, 138 mM NaCl, 2.7 mM KCL, 0.05% Tween 20). The wash buffer was replaced with 50 μL of secondary antibody (Sulfa TAG anti-mouse, Meso Scale Discovery) at 1:1000 in 2% blocker A and incubated at room temperature for 1 hour. For the final readout with the Sector 6000, 150 μL of reading buffer T was added and the plates were read immediately.
In general terms: ELISA stands for enzyme-linked immunosorbent assay.

Assay [1] deals with T2, murine Aurora Kinase 1 (mAur1) (Mus musculus, UniProt O70126).
T2 construct: recombinant, GST-tagged mAur 1 (amino acids 67-345) that was co-expressed with human INCENP; GST; made in house
Nature of the assay: murine Aurora Kinase 1 (mAur1) biochemical Scintillation Proximity Assay. Conditions: SPA, biotinylated Peptide 830, 1 μM ATP, 12 nM GST-tagged mAur 1 co-expressed with human INCENP. On the procedure:
(§1) Using a Scintillation Proximity Assay (SPA) format, the murine Aurora Kinase 1 (mAur1) and murine Aurora Kinase 2 (mAur2) biochemical assay measures the ability of mAur2 to phosphorylate the substrate, biotinylated Peptide 830 (DRT, Protein Sciences). Once radiolabeled by the enzyme, the biotinylated substrate is captured on streptavidin-coated SPA beads and the radioactivity, in proximity to the SPA beads, is measured. For the generation of IC50 curves, the reaction was performed in 96-well isoplates (Wallac 1450-514) under the following conditions: a 10 mM stock solution of compound (in 100% dimethylsulfoxide; DMSO) was diluted 10 fold in 100% DMSO. Compounds were then serially diluted, 1:5, for an eight point dose curve, in 100% DMSO. A volume of 1 μL of the diluted compound was added to the reaction buffer that consisted of 25 mM HEPES pH 7.5, 1 mM MnCl2, 1 mM MgCl2, 1 mM DTT, 0.01% Tween20. A mixture with a final concentration per well of 1 μM cold ATP, 0.1 μCi ^33P-ATP (Amersham AH9968) and 1 μM biotinylated Peptide 830 was then added. The reaction was initiated with the addition of either recombinant, GST-tagged mAur 1 (amino acids 67-345) that was co-expressed with human INCENP (amino acids 704-919) (DRT, Protein Sciences) at a final concentration of 12 nM or N-terminal His-tagged mAur2 (amino acids 98-395; DRT, Protein Sciences) at a final concentration of 20 nM. The final reaction volume in each well was 100 μL and the final compound concentration ranged from 10 μM-[…] in 1% DMSO. The reaction mixture was allowed to incubate for 1-2 hours with gentle agitation at 25° C. To terminate the reaction, streptavidin-coated SPA beads (Amersham RPNQ0007; 50 μL of 0.5 mg beads dissolved in 165 mM EDTA) were then added to each well and incubation proceeded for an additional 15 minutes at 25° C. The plate was then centrifuged for ten minutes at 2000 rpm. Phosphorylation of the peptide substrate was measured using a Wallac 1450 Microbeta Plus Liquid Scintillation Counter.
A general note: SPA uses beads or plates that emit light when radiolabelled molecules are held near them.

The target in assay [2] is T3, murine Aurora Kinase 2 (mAur2) (Mus musculus, UniProt P97477).
T3 construct: N-terminal His-tagged mAur2 (amino acids 98-395; DRT, Protein Sciences); His (N); made in house
T3 sequence (P97477 98-395): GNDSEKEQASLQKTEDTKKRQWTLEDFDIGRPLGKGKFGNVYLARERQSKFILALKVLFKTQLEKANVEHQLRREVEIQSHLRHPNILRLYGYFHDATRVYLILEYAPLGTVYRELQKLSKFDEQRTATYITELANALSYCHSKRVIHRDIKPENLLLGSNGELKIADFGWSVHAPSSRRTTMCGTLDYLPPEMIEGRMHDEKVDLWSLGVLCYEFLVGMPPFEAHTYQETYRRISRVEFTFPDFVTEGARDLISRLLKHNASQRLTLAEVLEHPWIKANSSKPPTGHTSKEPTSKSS
Nature of the assay: murine Aurora Kinase 2 (mAur2) biochemical Scintillation Proximity Assay. Conditions: SPA, biotinylated Peptide 830, 1 μM ATP, 20 nM His-tagged mAur2. How it is done:
as §1

Usually IC50 stands for the concentration that inhibits the measured activity by half. Low readings indicate greater potency, high ones weaker potency.

T2 sequence (O70126 67-345): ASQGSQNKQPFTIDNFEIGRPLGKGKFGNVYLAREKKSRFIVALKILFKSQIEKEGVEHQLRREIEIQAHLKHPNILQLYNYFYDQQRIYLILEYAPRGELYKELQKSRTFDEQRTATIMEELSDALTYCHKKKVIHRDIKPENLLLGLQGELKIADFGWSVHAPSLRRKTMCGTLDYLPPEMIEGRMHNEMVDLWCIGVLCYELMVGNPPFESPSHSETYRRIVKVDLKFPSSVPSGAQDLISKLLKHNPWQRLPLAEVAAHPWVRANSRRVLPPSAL
T2 sequence (Q9NQS7 704-918 partner): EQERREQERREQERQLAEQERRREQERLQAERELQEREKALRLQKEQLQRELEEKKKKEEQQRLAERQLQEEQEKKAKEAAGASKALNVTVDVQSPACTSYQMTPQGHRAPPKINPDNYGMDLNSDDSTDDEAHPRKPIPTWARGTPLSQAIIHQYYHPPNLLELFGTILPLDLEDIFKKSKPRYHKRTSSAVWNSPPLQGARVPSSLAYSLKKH
T1 sequence (Q96GD4 whole entry): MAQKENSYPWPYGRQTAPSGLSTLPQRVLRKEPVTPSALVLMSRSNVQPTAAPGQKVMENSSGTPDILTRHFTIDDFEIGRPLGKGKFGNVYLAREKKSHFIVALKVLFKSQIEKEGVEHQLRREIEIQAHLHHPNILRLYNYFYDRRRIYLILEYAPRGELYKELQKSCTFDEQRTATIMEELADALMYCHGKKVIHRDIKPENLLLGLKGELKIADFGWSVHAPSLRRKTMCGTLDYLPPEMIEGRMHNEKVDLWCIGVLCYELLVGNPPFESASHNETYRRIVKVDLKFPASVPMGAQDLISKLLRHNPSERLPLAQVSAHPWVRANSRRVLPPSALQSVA

On to `CC(C)(C)c1ccc2nc(Nc3ccc(-c4c(C(=O)NCC(F)(F)F)cn5ncnc(N)c45)cc3)[nH]c2c1` [Example 10, 4-amino-5-{4-[(6-tert-butyl-1H-benzimidazol-2-yl)amino]phenyl}-N-(2,2,2-trifluoroethyl)pyrrolo[2,1-f][1,2,4]triazine-6-carboxamide], for which the IC50 at Aurora Kinase 1 was less than 1000 nM.

With `Nc1ncnn2cc(C(=O)NCC(F)(F)F)c(-c3ccc(Nc4nc5cc6c(cc5[nH]4)OC(F)(F)O6)cc3)c12` [Example 17, 4-amino-5-{4-[(2,2-difluoro-5H-[1,3]dioxolo[4,5-f]benzimidazol-6-yl)amino]phenyl}-N-(2,2,2-trifluoroethyl)pyrrolo[2,1-f][1,2,4]triazine-6-carboxamide], the figures for the half-inhibitory concentration (IC50) (in assay [1]; in assay [2]; against Aurora Kinase 1) were less than 100 nM, less than 100 nM and less than 1000 nM, respectively.

Consider `Nc1ncnn2cc(C(=O)NCC(F)(F)F)c(-c3ccc(Nc4nc5ccc(N6CCCC6)nc5[nH]4)cc3)c12` [Example 20, 4-amino-5-{4-[(5-pyrrolidin-1-yl-3H-imidazo[4,5-b]pyridin-2-yl)amino]phenyl}-N-(2,2,2-trifluoroethyl)pyrrolo[2,1-f][1,2,4]triazine-6-carboxamide], for which the concentration for half-maximal inhibition (IC50) against Aurora Kinase 1 was less than 1000 nM.

With `Nc1ncnn2cc(C(=O)NCC(F)(F)F)c(-c3ccc(Nc4nc5ccc(OC(F)(F)F)cc5[nH]4)cc3)c12` [Example 31, 4-amino-N-(2,2,2-trifluoroethyl)-5-(4-{[6-(trifluoromethoxy)-1H-benzimidazol-2-yl]amino}phenyl)pyrrolo[2,1-f][1,2,4]triazine-6-carboxamide], the IC50 against Aurora Kinase 1 was less than 1000 nM.

In turn, `Nc1ncnn2cc(C(=O)NCC(F)(F)F)c(-c3ccc(Nc4nc5ccc(Oc6ccccc6)c(F)c5[nH]4)cc3)c12` [Example 32, 4-amino-5-{4-[(7-fluoro-6-phenoxy-1H-benzimidazol-2-yl)amino]phenyl}-N-(2,2,2-trifluoroethyl)pyrrolo[2,1-f][1,2,4]triazine-6-carboxamide] gave an IC50 against Aurora Kinase 1 of less than 1000 nM.

Regarding `Nc1ncnn2cc(C(=O)NCC(F)(F)F)c(-c3ccc(Nc4nc5ccc(Oc6ccc(F)cc6)c(F)c5[nH]4)cc3)c12` [Example 35, 4-amino-5-(4-{[7-fluoro-6-(4-fluorophenoxy)-1H-benzimidazol-2-yl]amino}phenyl)-N-(2,2,2-trifluoroethyl)pyrrolo[2,1-f][1,2,4]triazine-6-carboxamide], at Aurora Kinase 1, the half-inhibitory concentration (IC50) was less than 1000 nM.

For `Nc1ncnn2cc(C(=O)NCC(F)(F)F)c(-c3ccc(Nc4nc5ccc(NC6CCC6)nc5[nH]4)cc3)c12` [Example 47, 4-amino-5-(4-{[5-(cyclobutylamino)-3H-imidazo[4,5-b]pyridin-2-yl]amino}phenyl)-N-(2,2,2-trifluoroethyl)pyrrolo[2,1-f][1,2,4]triazine-6-carboxamide], the IC50 in assay [1] was less than 100 nM; in assay [2], less than 100 nM; against Aurora Kinase 1 it was less than 1000 nM.

For the molecule `CC(C)(C)NC(=O)c1cn2ncnc(N)c2c1-c1ccc(Nc2nc3cc(F)cc(F)c3[nH]2)cc1` [Example 72, 4-amino-N-(tert-butyl)-5-{4-[(5,7-difluoro-1H-benzimidazol-2-yl)amino]phenyl}pyrrolo[2,1-f][1,2,4]triazine-6-carboxamide], the IC50 in assay [1] is less than 100 nM; in assay [2] it was less than 100 nM; against Aurora Kinase 1, less than 1000 nM.

With `CNC(=O)c1cn2ncnc(N)c2c1-c1ccc(Nc2nc3ccc(Oc4ccccc4)c(F)c3[nH]2)cc1` [Example 102, 4-amino-5-{4-[(7-fluoro-6-phenoxy-1H-benzimidazol-2-yl)amino]phenyl}-N-methylpyrrolo[2,1-f][1,2,4]triazine-6-carboxamide], the results for the 50% inhibitory concentration (IC50) (in assay [1]; in assay [2]; on Aurora Kinase 1) were less than 100 nM, less than 100 nM and less than 1000 nM, respectively.

Take `CC(C)CNC(=O)c1cn2ncnc(N)c2c1-c1ccc(Nc2nc3ccc(Oc4ccccc4)c(F)c3[nH]2)cc1` [Example 111, 4-amino-5-{4-[(7-fluoro-6-phenoxy-1H-benzimidazol-2-yl)-amino]phenyl}-N-isobutylpyrrolo[2,1-f][1,2,4]triazine-6-carboxamide]: the concentration for half-maximal inhibition (IC50) in assay [1] and in assay [2] was less than 100 nM throughout.

In the case of `Nc1ncnn2cc(C(=O)NC3CCCC3)c(-c3ccc(Nc4nc5ccc(Oc6ccccc6)c(F)c5[nH]4)cc3)c12` [Example 112, 4-amino-N-cyclopentyl-5-{4-[(7-fluoro-6-phenoxy-1H-benzimidazol-2-yl)amino]phenyl}pyrrolo[2,1-f][1,2,4]triazine-6-carboxamide], the IC50 in assay [1] and in assay [2] was less than 100 nM each time.

In the case of `Nc1ncnn2cc(C(=O)N3CCCC3)c(-c3ccc(Nc4nc5ccc(Oc6ccccc6)c(F)c5[nH]4)cc3)c12` [Example 113, 5-{4-[(7-fluoro-6-phenoxy-1H-benzimidazol-2-yl)amino]phenyl}-6-(pyrrolidin-1-ylcarbonyl)pyrrolo[2,1-f][1,2,4]triazin-4-amine], the concentration for half-maximal inhibition (IC50) in assay [1] and in assay [2] was less than 100 nM throughout.

For `Cc1ccc(-c2ccc3nc(Nc4ccc(-c5c(C(=O)NCC(F)(F)F)cn6ncnc(N)c56)cc4)[nH]c3n2)cc1` [Example 115, 4-amino-5-(4-{[5-(4-methylphenyl)-3H-imidazo[4,5-b]pyridin-2-yl]amino}phenyl)-N-(2,2,2-trifluoroethyl)pyrrolo[2,1-f][1,2,4]triazine-6-carboxamide], the IC50 in assay [1] and in assay [2] was less than 100 nM each time.

For `COCc1cccc(-c2ccc3nc(Nc4ccc(-c5c(C(=O)NCC(F)(F)F)cn6ncnc(N)c56)cc4)[nH]c3n2)c1` [Example 116, 4-amino-5-[4-({5-[3-(methoxymethyl)phenyl]-3H-imidazo[4,5-b]pyridin-2-yl}amino)phenyl]-N-(2,2,2-trifluoroethyl)pyrrolo[2,1-f][1,2,4]triazine-6-carboxamide], the half-maximal inhibitory concentration (IC50) in assay [1] and in assay [2] was less than 100 nM each time.

With `Nc1ncnn2cc(C(=O)O)c(-c3ccc(Nc4nc5ccc(C(F)(F)F)nc5[nH]4)cc3)c12` [Example 119], the concentration for half-maximal inhibition (IC50) in assay [1] and in assay [2] was less than 100 nM in each case.

Consider `Nc1ncnn2cc(C(=O)NCC(F)(F)F)c(-c3ccc(Nc4nc5ccc(C(F)(F)F)nc5[nH]4)cc3)c12` [Example 120, 4-amino-N-(2,2,2-trifluoroethyl)-5-(4-{[5-(trifluoromethyl)-3H-imidazo[4,5-b]pyridin-2-yl]amino}phenyl)pyrrolo[2,1-f][1,2,4]triazine-6-carboxamide], for which the IC50 in assay [1] and in assay [2] was less than 100 nM in each case.
